The source of these data is ChEMBL document CHEMBL1151439, “Bactericidal action of daptomycin against stationary-phase and nondividing Staphylococcus aureus cells” (2007).

Converted amounts (≈) assume the structure as drawn. The source made the active and inactive calls.

In assay [1] the test system is Staphylococcus aureus. Briefly: Antibacterial activity against exponential growth culture of methicillin-sensitive Staphylococcus aureus ATCC 29213 grown for 2 hrs in MHBc by broth microdilution method. The format is functional. On the technique in general: Dilution methods test growth across graded concentrations, often in twofold steps.
Assay [2] relates to Staphylococcus aureus. Briefly: Bactericidal activity against high inoculum density stationary phase culture of methicillin-sensitive Staphylococcus aureus ATCC 29213 grown for >17 hrs in MHBc at 100 ug/mL after 24 hrs by time kill study. The format is functional, organism-based.
Assay [3] has as its system Staphylococcus aureus. Briefly: Bactericidal activity against 24 hrs cold-arrested exponential growth culture of methicillin-sensitive Staphylococcus aureus ATCC 29213 grown for 2 hrs in MHBc at 2 ug/mL incubated at 37 degC after 2 hrs by time kill study. The format is functional, organism-based.
In assay [4] the test system is Staphylococcus aureus. Briefly: Bactericidal activity against 1 hr cold-arrested exponential growth culture of methicillin-sensitive Staphylococcus aureus ATCC 29213 grown for 2 hrs in MHBc at 2 ug/mL incubated at 0 degC by time kill study. Type of assay: functional, organism-based.
Assay [5] relates to Staphylococcus aureus. Briefly: Bactericidal activity against high inoculum density stationary phase culture of methicillin-sensitive Staphylococcus aureus ATCC 29213 grown for >17 hrs in MHBc assessed as effect on viability at 100 ug/mL after 4 hrs by time kill study. Type of assay: functional, organism-based.
The test system of assay [6] is Staphylococcus aureus. Briefly: Bactericidal activity against erythromycin-induced metabolically arrested exponential growth culture of methicillin-sensitive Staphylococcus aureus ATCC 29213 grown for 2 hrs in MHBc at 10 ug/mL after 24 hrs by time kill study. The format is functional, organism-based.
For assay [7], the system named is Staphylococcus aureus. As to the kind of experiment: Bactericidal activity against high inoculum density stationary phase culture of methicillin-sensitive Staphylococcus aureus ATCC 29213 grown for >17 hrs in MHBc at 100 ug/mL after prolonged treatment period by time kill study. Type of assay: functional, organism-based.
Assay [8] relates to Staphylococcus aureus. Briefly: Bactericidal activity against high inoculum density stationary phase culture of methicillin-sensitive Staphylococcus aureus ATCC 29213 grown for >17 hrs in MHBc assessed as log reduction in CFU per millimiter at 100 ug/mL after 8 hrs by time kill study. The format is functional.
Assay [9] deals with Staphylococcus aureus. As to the kind of experiment: Bactericidal activity against CCCP-induced metabolically arrested exponential growth culture of methicillin-sensitive Staphylococcus aureus ATCC 29213 grown for 2 hrs in MHBc at 10 ug/mL after 24 hrs by time kill study. The format is functional, organism-based.
Assay [10] deals with Staphylococcus aureus. Briefly: Bactericidal activity against stationary phase culture of methicillin-sensitive Staphylococcus aureus ATCC 29213 grown for >17 hrs in MHBc followed by dilution in nutrient depleted MHBc assessed as logarithmic reduction in CFU per millimiter at 10 ug/mL after 24 hrs by time kill study. Type of assay: functional.
Assay [11] deals with Staphylococcus aureus. Briefly: Bactericidal activity against high inoculum density stationary phase culture of methicillin-sensitive Staphylococcus aureus ATCC 29213 grown for >17 hrs in MHBc at 10 ug/mL after 24 hrs by time kill study. The format is functional, organism-based.
In assay [12] the test system is Staphylococcus aureus. Briefly: Bactericidal activity against stationary phase culture of methicillin-sensitive Staphylococcus aureus ATCC 29213 grown for >17 hrs in MHBc followed by dilution in nutrient depleted MHBc assessed as logarithmic reduction in CFU per millimiter at 100 ug/mL after 24 hrs by time kill study. Type of assay: functional, organism-based.
The test system of assay [13] is Staphylococcus aureus. Briefly: Bactericidal activity against high inoculum density stationary phase culture of methicillin-sensitive Staphylococcus aureus ATCC 29213 grown for >17 hrs in MHBc by time kill study. Type of assay: functional, organism-based.
The test system of assay [14] is Staphylococcus aureus. Briefly: Bactericidal activity against high inoculum density exponential growth culture of methicillin-sensitive Staphylococcus aureus ATCC 29213 grown for 2 hrs in MHBc assessed as log reduction in cell density at 100 ug/mL after 1 hr by time kill study. Type of assay: functional, organism-based.
The subject of assay [15] is Staphylococcus aureus. Briefly: Bactericidal activity against high inoculum density exponential growth culture of methicillin-sensitive Staphylococcus aureus ATCC 29213 grown for 2 hrs in MHBc at 10 ug/mL after 24 hrs by time kill study. Type of assay: functional, organism-based.
For assay [16], the system named is Staphylococcus aureus. As to the kind of experiment: Bactericidal activity against exponential growth culture of methicillin-sensitive Staphylococcus aureus ATCC 29213 grown for 2 hrs in MHBc assessed as logarithmic reduction in CFU at 2 ug/ml within 60 mins by time kill study. The format is functional.
The test system of assay [17] is Staphylococcus aureus. Briefly: Bactericidal activity against stationary phase culture of methicillin-sensitive Staphylococcus aureus ATCC 29213 grown for 17 hrs in MHBc at 32 ug/ml after 24 hrs by time kill study. The format is functional, organism-based.

For GENTAMICIN, the MIC (as a rule, the smallest concentration in the dilution series that meets the test's criterion for growth inhibition) in the assay with Staphylococcus aureus [1] was 0.25 µg/mL. Besides, in the assay with Staphylococcus aureus [2], the result was Active.

In the assay on Staphylococcus aureus [1] (ATCC 29213, 2 h), `CCOc1ccc2ccccc2c1C(=O)N[C@@H]1C(=O)N2[C@@H]1SC(C)(C)[C@@H]2C(=O)O` [NAFCILLIN] gave an MIC of 0.125 µg/mL (≈ 0.302 µM). In addition, in the assay with Staphylococcus aureus [3], the result was Active. In the assay on Staphylococcus aureus [4], the result was inactive.

For `CN[C@H](CC(C)C)C(=O)N[C@H]1C(=O)N[C@@H](CC(N)=O)C(=O)N[C@H]2C(=O)N[C@H]3C(=O)N[C@H](C(=O)N[C@H](C(=O)O)c4cc(O)cc(O)c4-c4cc3ccc4O)[C@H](O)c3ccc(c(Cl)c3)Oc3cc2cc(c3O[C@@H]2O[C@H](CO)[C@@H](O)[C@H](O)[C@H]2O[C@H]2C[C@](C)(N)[C@H](O)[C@H](C)O2)Oc2ccc(cc2Cl)[C@H]1O`, the result with Staphylococcus aureus [2] and in the assay with Staphylococcus aureus [5] was inactive.

Regarding `CCCCCCCCCC(=O)N[C@@H](Cc1c[nH]c2ccccc12)C(=O)N[C@H](CC(N)=O)C(=O)N[C@@H](CC(=O)O)C(=O)N[C@@H]1C(=O)NCC(=O)N[C@@H](CCCN)C(=O)N[C@@H](CC(=O)O)C(=O)N[C@H](C)C(=O)N[C@@H](CC(=O)O)C(=O)NCC(=O)N[C@H](CO)C(=O)N[C@@H]([C@H](C)CC(=O)O)C(=O)N[C@@H](CC(=O)c2ccccc2N)C(=O)O[C@@H]1C`, the MIC with Staphylococcus aureus [1] (ATCC 29213, 2 h) turned out to be 0.5 µg/mL (≈ 0.309 µM). Also, the result with Staphylococcus aureus [6], in the assay with Staphylococcus aureus [7], in the assay on Staphylococcus aureus [9], with Staphylococcus aureus [3], in the assay on Staphylococcus aureus [12] and in the assay with Staphylococcus aureus [4] was Active. Moreover, the outcome in the assay with Staphylococcus aureus [14], with Staphylococcus aureus [15] and in the assay on Staphylococcus aureus [17] was Active. In addition, the Activity in the assay with Staphylococcus aureus [8] was 3; with Staphylococcus aureus [10] it was over 1; with Staphylococcus aureus [13], “Dose-dependent effect”; in the assay on Staphylococcus aureus [16] it was 3. Also, the result with Staphylococcus aureus [11] was inactive.

For the compound `O=C(O)c1cn(C2CC2)c2cc(N3CCNCC3)c(F)cc2c1=O` [CIPROFLOXACIN], in the assay with Staphylococcus aureus [1] (ATCC 29213, 2 h), the MIC turned out to be 0.5 µg/mL (≈ 1.51 µM). In addition, the result in the assay with Staphylococcus aureus [6], in the assay with Staphylococcus aureus [9] and in the assay with Staphylococcus aureus [4] was inactive. In addition, the result with Staphylococcus aureus [3] and in the assay on Staphylococcus aureus [15] was Active.
